Like-named read-outs stand apart in the source and are kept apart here.
Target: T1, Leucine-rich repeat serine/threonine-protein kinase 2 (LRRK2), WD-40 repeat (WDR) domain (Homo sapiens, UniProt Q5S007)
T1 construct: WD-40 repeat (WDR) domain
T1 sequence (Q5S007 2142-2527): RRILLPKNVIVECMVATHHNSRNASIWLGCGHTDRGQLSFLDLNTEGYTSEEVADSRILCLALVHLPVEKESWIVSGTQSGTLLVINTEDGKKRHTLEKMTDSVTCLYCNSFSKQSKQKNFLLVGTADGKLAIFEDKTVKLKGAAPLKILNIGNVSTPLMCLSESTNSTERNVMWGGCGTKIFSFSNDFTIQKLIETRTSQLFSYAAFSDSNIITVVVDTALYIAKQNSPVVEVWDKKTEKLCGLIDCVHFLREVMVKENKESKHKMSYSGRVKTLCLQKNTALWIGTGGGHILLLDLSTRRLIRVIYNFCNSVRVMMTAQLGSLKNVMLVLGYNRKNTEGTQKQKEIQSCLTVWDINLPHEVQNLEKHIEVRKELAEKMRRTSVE
Assay: SPR
Format: binding

O=C(CN1CCC2(C1)C(=O)Nc1ccccc12)Nc1ccc2c(c1)CCC2 (centres unmarked) [CACHE_1181_33]
Kd: > 100 µM

O=C(NCc1ccc[nH]c1=O)N1CCC(CCc2ccc(F)cc2F)CC1 [CACHE_1181_50]
Kd (read-out: Kd): > 100 µM

Source: paper PMC11683865, “CACHE Challenge #1: Docking with GNINA Is All You Need” (Journal of Chemical Information and Modeling, 2024)
